Consider 14 molecules from ChEMBL document CHEMBL3233009, “Pyrazoles as non-classical bioisosteres in prolylcarboxypeptidase (PrCP) inhibitors” (Bioorg Med Chem Lett, 2014).

In data set [1] the target is T1, Lysosomal Pro-X carboxypeptidase (Mus musculus, UniProt Q7TMR0).
T1 sequence (Q7TMR0 whole entry): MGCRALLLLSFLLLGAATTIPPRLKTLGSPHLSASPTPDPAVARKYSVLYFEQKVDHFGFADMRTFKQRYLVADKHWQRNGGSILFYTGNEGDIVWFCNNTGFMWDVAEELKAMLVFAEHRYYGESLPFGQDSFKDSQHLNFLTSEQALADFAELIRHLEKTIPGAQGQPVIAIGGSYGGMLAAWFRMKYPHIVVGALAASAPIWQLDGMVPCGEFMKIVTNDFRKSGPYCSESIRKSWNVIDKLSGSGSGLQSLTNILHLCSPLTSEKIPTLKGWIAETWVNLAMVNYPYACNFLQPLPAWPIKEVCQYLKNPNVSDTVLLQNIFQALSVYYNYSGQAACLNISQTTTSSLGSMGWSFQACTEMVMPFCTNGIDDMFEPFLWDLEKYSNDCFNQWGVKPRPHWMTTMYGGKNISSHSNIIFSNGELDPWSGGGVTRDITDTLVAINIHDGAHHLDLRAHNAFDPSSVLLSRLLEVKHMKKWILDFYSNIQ
The experiment in a line: Inhibition of recombinant mouse PrCP using Mca-Ala-Pro-Lys(Dnp)-OH as substrate after 30 mins by continuous fluorometric assay.

A short description of data set [2]: Volume of distribution in C57Bl/6 mouse at 1 mg/kg, iv and 2 mg/kg, po. The format is ADME, organism-based. As to conditions: in vivo.
A short description of data set [3]: Fraction unbound in mouse 100% plasma. It is filed as ADME, cell-free.
Data set [4] can be described thus: Fraction unbound in human 100% plasma. It is filed as ADME, cell-free.
Data set [5] is described as follows: Oral bioavailability in C57Bl/6 mouse at 2 mg/kg. It is filed as ADME, organism-based. The note with it: in vivo.
Data set [6] can be described thus: Clearance in C57Bl/6 mouse at 1 mg/kg, iv and 2 mg/kg, po. It is filed as ADME, organism-based. The note with it: in vivo.
Data set [7] deals with Mus musculus. The experiment in a line: Dose normalized AUC in C57Bl/6 mouse at 2 mg/kg, po. Details: dose 2 mg/kg, route oral. As to conditions: in vivo. The format is ADME, organism-based.
Data set [8] can be described thus: Half life in C57Bl/6 mouse at 1 mg/kg, iv and 2 mg/kg, po. The note with it: in vivo. It is filed as ADME, organism-based.
A short description of data set [9]: Clearance in C57Bl/6 mouse at 2 mg/kg, iv and 10 mg/kg, po. It is filed as ADME, organism-based. The note with it: in vivo.
A short description of data set [10]: Half life in C57Bl/6 mouse at 2 mg/kg, iv and 10 mg/kg, po. It is filed as ADME, organism-based. The note with it: in vivo.
Data set [11] in a line: Oral bioavailability in C57Bl/6 mouse at 10 mg/kg. It is filed as ADME, organism-based. As to conditions: in vivo.
The subject of data set [12] is Mus musculus. As to the kind of experiment: Dose normalized AUC in C57Bl/6 mouse at 10 mg/kg, po. As to conditions: in vivo. It is filed as ADME, organism-based. Details: dose 10 mg/kg, route oral.
Data set [13] in a line: Volume of distribution in C57Bl/6 mouse at 2 mg/kg, iv and 10 mg/kg, po. The format is ADME, organism-based. The note with it: in vivo.

As for `Clc1ccc(-c2cc([C@@H]3CC[C@@H](N4CCOCC4)C[C@H]3c3ccc(Br)cc3)[nH]n2)cc1`, the IC50 in [1] is 220 nM.

As to `O=C([C@@H]1CC[C@@H](NCc2ccc(Cl)cc2)C[C@H]1c1ccc(F)cc1)N1CC(c2ccccc2)(c2ccccc2)C1`, the half-maximal inhibitory concentration (IC50) in data set [1] was 4.7 nM.

Molecule `Fc1ccc([C@@H]2CN(CCc3ccccc3)CC[C@H]2c2cc(-c3ccc(Cl)cc3)n[nH]2)cc1.O=C(O)C(F)(F)F` returned a Vd in data set [2] of 13.3 L/kg. For the same molecule, the fraction unbound in data set [3] was less than 0.01; in data set [4], 0.03. Moreover, the bioavailability in data set [5] was 33%. For the same molecule, the clearance in [6] is 28.9 mL/min/kg. This molecule registered an AUC/dose with Mus musculus [7] of 0.413 µM·kg·h/mg. The molecule also had a half-life in data set [8] of 4.8 h. Moreover, the IC50 in [1] turned out to be 2.2 nM.

With `Fc1ccc([C@H]2CN(CCc3ccccc3)CC[C@H]2c2cc(-c3ccc(Cl)cc3)n[nH]2)cc1`, the half-inhibitory concentration (IC50) in data set [1] was 24 nM.

Regarding `OC(CN1CC[C@@H](c2cc(-c3ccc(Cl)cc3)n[nH]2)[C@H](c2ccc(F)cc2)C1)c1ccccc1` (some centres undefined), the half-maximal inhibitory concentration (IC50) in data set [1] stood at 5.9 nM.

Consider `O=C(CN1CC[C@@H](c2cc(-c3ccc(Cl)cc3)n[nH]2)[C@H](c2ccc(F)cc2)C1)c1ccccc1`, for which, in data set [1], the IC50 is 30 nM.

In the case of `Clc1ccc(-c2cc(C3(c4ccccc4)CCN(CCc4ccccc4)CC3)[nH]n2)cc1`, the results for the fraction unbound in data set [3] and in data set [4] were less than 0.01 and 0.03, respectively.

With `Fc1ccc(-c2cc(C3(c4ccccc4)CCN(CCc4ccccc4)CC3)[nH]n2)cc1`, the figures for the fraction unbound in [3] and in [4] were less than 0.01 and 0.07, respectively. In data set [1], the IC50 is 23 nM.

On to `Cn1nc(-c2ccc(F)cc2)cc1C1(c2ccccc2)CCN(CCc2ccccc2)CC1`, for which the fraction unbound in [3] and in data set [4] was less than 0.01 in each case. Moreover, in [1], the IC50 was 3.6 nM.

For `Cn1nc(-c2ccc(F)cc2)cc1C1(c2ccccn2)CCN(CCc2ccccc2)CC1`, the free fraction (fraction unbound) in [3] amounted to 0.04; in data set [4], 0.01.

`Cc1ccccc1[C@@H]1C[C@H](N2CCOCC2)CC[C@H]1C(=O)N1CC(c2ccccc2)(c2ccccc2)C1.O=C(O)C(F)(F)F` returned a clearance in data set [9] of 72.2 mL/min/kg. Moreover, in [10], the half-life is 1.7 h. Further, the results for the unbound share (fraction unbound) in data set [3] and in data set [4] were 0.04 and 0.02, respectively. In [11], this molecule registered a bioavailability of 7.8%. This molecule also showed an AUC/dose in the data set on Mus musculus [12] of 0.037 µM·kg·h/mg. The Vd in [13] stood at 10.8 L/kg.

With `Fc1ccc([C@@H]2CN(CCc3ccc(Cl)cc3)CC[C@H]2c2cc(-c3ccc(Cl)cc3)n[nH]2)cc1` (racemic), the IC50 in data set [1] was determined as 20 nM.

With `Fc1ccc([C@@H]2CN(Cc3ccc(Cl)cc3)CC[C@H]2c2cc(-c3ccc(Cl)cc3)n[nH]2)cc1` (racemic), the fraction unbound in [3] and in [4] was less than 0.01 throughout.

Turning to `Fc1ccc([C@@H]2CN(CCC(F)(F)F)CC[C@H]2c2cc(-c3ccc(Cl)cc3)n[nH]2)cc1` (racemic), in data set [1], the half-inhibitory concentration (IC50) worked out at 56 nM.
